The source of these data is patent publication US9650340B2, “5-fluoro-N-(pyridin-2-yl)pyridin-2-amine derivatives containing a sulfoximine group” (BAYER PHARMA AKTIENGESELLSCHAFT, priority 2012, dated 2017).

One series concerns the target T1, CDK9/CycT1 (Homo sapiens, UniProt P50750).
T1 construct: Recombinant full-length His-tagged human CDK9 and CycT1; His; purchased Invitrogen PV4131; host or cells: insect cells
As to the kind of experiment: CDK9/CycT1 kinase assay (TR-FRET, 10 μM ATP). It is filed as biochemical. Particulars: Method 1a. The source says: 1a. CDK9/CyeT1 Kinase Assay:
CDK9/CycT1-inhibitory activity of compounds of the present invention was quantified employing the CDK9/CycT1 TR-FRET assay as described in the following paragraphs:
Recombinant full-length His-tagged human CDK9 and CycT1, expressed in insect cells and purified by Ni-NTA affinity chromatography, were purchased from Invitrogen (Cat. No PV4131). As substrate for the kinase reaction biotinylated peptide biotin-Ttds-[…] (C-terminus in amid form) was used which can be purchased e.g. form the company JERINI Peptide Technologies (Berlin, Germany). For the assay 50 nl of a 100 fold concentrated solution of the test compound in DMSO was pipetted into a black low volume 384 well microtiter plate (Greiner Bio-One, Frickenhausen, Germany), 2 μl of a solution of CDK9/CycT1 in aqueous assay buffer [50 mM Tris/HCl pH 8.0, 10 mM MgCl2, 1.0 mM dithiothreitol, 0.1 mM sodium ortho-vanadate, 0.01% (v/v) Nonidet-P40 (Sigma)] were added and the mixture was incubated for 15 min at 22° C. to allow pre-binding of the test compounds to the enzyme before the start of the kinase reaction.
The resulting mixture was incubated 1 h at 22° C. to allow the formation of complex between the phosphorylated biotinylated peptide and the detection reagents. Subsequently the amount of phosphorylated substrate was evaluated by measurement of the resonance energy transfer from the Eu-chelate to the streptavidine-XL.

Series [1] concerns Caco-2, human colorectal carcinoma cells. Kind of series: Proliferation assay, Caco-2 (crystal violet). It is filed as cell-based. Particulars: Caco-2, 4 days, read-out: Inhibition of Caco-2 cell proliferation IC50. The protocol: (§1) Cultivated tumour cells (HeLa, human cervical tumour cells, ATCC CCL-2; NCI-H460, human non-small cell lung carcinoma cells, ATCC HTB-177; A2780, human ovarian carcinoma cells, ECACC #93112519; DU 145, hormone-independent human prostate carcinoma cells, ATCC HTB-81; HeLa-MaTu-ADR, multidrug-resistant human cervical carcinoma cells, EPO-GmbH Berlin; Caco-2, human colorectal carcinoma cells, ATCC HTB-37; B16F10, mouse melanoma cells, ATCC CRL-6475) were plated at a density of 5,000 cells/well (DU145, HeLa-MaTu-ADR), 3,000 cells/well (NCI-H460, HeLa), 2,500 cells/well (A2780), 1,500 cells/well (Caco-2), or 1,000 cells/well (B16F10) in a 96-well multititer plate in 200 μL of their respective growth medium supplemented 10% fetal calf serum. After 24 hours, the cells of one plate (zero-point plate) were stained with crystal violet (see below), while the medium of the other plates was replaced by fresh culture medium (200 μl), to which the test substances were added in various concentrations (0 μM, as well as in the range of 0.001-10 μM; the final concentration of the solvent dimethyl sulfoxide was 0.5%). The cells were incubated for 4 days in the presence of test substances. Cell proliferation was determined by staining the cells with crystal violet: the cells were fixed by adding 20 μl/measuring point of an 11% glutaric aldehyde solution for 15 minutes at room temperature. After three washing cycles of the fixed cells with water, the plates were dried at room temperature. The cells were stained by adding 100 μl/measuring point of a 0.1% crystal violet solution (pH 3.0). After three washing cycles of the stained cells with water, the plates were dried at room temperature. The dye was dissolved by adding 100 μl/measuring point of a 10% acetic acid solution. The extinction was determined by photometry at a wavelength of 595 nm. The change of cell number, in percent, was calculated by normalization of the measured values to the extinction values of the zero-point plate (=0%) and the extinction of the untreated (0 μm) cells (=100%). The IC50 values (inhibitory concentration at 50% of maximal effect) were determined by means of a 4 parameter fit. Non-adherent MOLM-13 human acute myeloid leukemia cells (DSMZ ACC 554) were seeded at a density of 5,000 cells/well in a 96-well multititer plate in 100 μL of growth medium supplemented 10% fetal calf serum. After 24 hours, cell viability of one plate (zero-point plate) was determined with the Cell Titre-Glo Luminescent Cell Viability Assay (Promega), while 50 μL of test compound containing medium was added to the wells of the other plates (final concentrations in the range of 0.001-10 μM and DMSO controls; the final concentration of the solvent dimethyl sulfoxide was 0.5%). Cell viability was assessed after 72-hour exposure with the Cell Titre-Glo Luminescent Cell Viability Assay (Promega).

In series [2] the test system is HeLa, human cervical tumour cells. As to the kind of experiment: Proliferation assay, HeLa (crystal violet). It is filed as cell-based. Particulars: 4 days, read-out: Inhibition of HeLa cell proliferation IC50. How it is done: as §1
Series [3] can be described thus: Equilibrium shake flask solubility assay, thermodynamic solubility in citrate buffer pH 4. It is filed as physicochemical. Conditions: citrate buffer pH 4, 24 h, room temperature; for solubility at 24 h: citrate buffer, pH 4, aqueous buffer, thermodynamic from solid, read-out: Solubility in aqueous Citrate buffer pH4. How it is done: 4b) Thermodynamic Solubility in Citrate Buffer pH 4
Thermodynamic solubility was determined by an equilibrium shake flask method [Literature: Edward H. Kerns and Li Di (2008) Solubility Methods in: Drug-like Properties: Concepts, Structure Design and Methods, p276-286. Burlington, Mass.: Academic Press].
A saturated solution of the drug was prepared and the solution was mixed for 24 h to ensure that equilibrium has been reached. The solution was centrifuged to remove the insoluble fraction and the concentration of the compound in solution was determined using a standard calibration curve.
To prepare the sample, 1.5 mg solid compound was weighed in a 4 ml glass vial. 1 ml Citrate buffer pH 4 was added. The suspension was put on a stirrer and mixed for 24 hrs at room temperature. The solution was centrifuged afterwards. To prepare the sample for the standard calibration, 0.6 mg solid sample was dissolved in 19 ml acetonitrile/water 1:1. After sonification the solution was filled up with acetonitrile/water 1:1 to 20 ml.
Sample and standards were quantified by HPLC with UV-detection. For each sample two injection volumes (5 and 50 μl) in triplicates were made. Three injection volumes (5 μl, 10 μl and 20 μl) were made for the standard.
The areas of sample- and standard injections as well as the calculation of the solubility value (in mg/l) were determined by using HPLC software (Waters Empower 2 FR).

Series [4] has as its system HeLa-MaTu-ADR, multidrug-resistant human cervical carcinoma cells. Kind of series: Proliferation assay, HeLa-MaTu-ADR (crystal violet). It is filed as cell-based. Conditions: 4 days, read-out: Inhibition of HeLa-MaTu-ADR cell proliferation IC50. The protocol:
as §1

The test system of series [5] is A2780, human ovarian carcinoma cells. As to the kind of experiment: Proliferation assay, A2780 (crystal violet). It is filed as cell-based. Particulars: A2780, 4 days, read-out: Inhibition of A2780 cell proliferation IC50. The protocol: as §1
The subject of series [6] is MOLM-13 human acute myeloid leukemia cells. Kind of series: Proliferation assay, MOLM-13 (Cell Titre-Glo). It is filed as cell-based. Conditions: MOLM-13, 72-hour exposure, read-out: Inhibition of MOLM-13 cell proliferation IC50. The protocol:
as §1

Broadly, the solubility is how much of the substance goes into solution per volume.

The structures appear in SMILES notation. ≈ marks a conversion by molar mass, not a printed value. Read-outs that look alike come from different tables or passages of the source.

T1 sequence (P50750 whole entry): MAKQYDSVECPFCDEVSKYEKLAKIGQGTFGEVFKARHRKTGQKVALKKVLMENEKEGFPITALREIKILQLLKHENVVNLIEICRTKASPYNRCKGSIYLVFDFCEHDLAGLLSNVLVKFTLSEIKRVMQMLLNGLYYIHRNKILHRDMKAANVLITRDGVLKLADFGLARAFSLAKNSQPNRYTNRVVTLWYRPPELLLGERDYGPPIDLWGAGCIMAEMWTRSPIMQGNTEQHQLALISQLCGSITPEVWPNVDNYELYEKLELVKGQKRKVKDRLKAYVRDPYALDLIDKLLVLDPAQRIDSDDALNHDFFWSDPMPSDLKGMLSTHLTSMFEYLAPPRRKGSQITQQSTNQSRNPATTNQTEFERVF
T1 sequence (O60563 whole entry partner): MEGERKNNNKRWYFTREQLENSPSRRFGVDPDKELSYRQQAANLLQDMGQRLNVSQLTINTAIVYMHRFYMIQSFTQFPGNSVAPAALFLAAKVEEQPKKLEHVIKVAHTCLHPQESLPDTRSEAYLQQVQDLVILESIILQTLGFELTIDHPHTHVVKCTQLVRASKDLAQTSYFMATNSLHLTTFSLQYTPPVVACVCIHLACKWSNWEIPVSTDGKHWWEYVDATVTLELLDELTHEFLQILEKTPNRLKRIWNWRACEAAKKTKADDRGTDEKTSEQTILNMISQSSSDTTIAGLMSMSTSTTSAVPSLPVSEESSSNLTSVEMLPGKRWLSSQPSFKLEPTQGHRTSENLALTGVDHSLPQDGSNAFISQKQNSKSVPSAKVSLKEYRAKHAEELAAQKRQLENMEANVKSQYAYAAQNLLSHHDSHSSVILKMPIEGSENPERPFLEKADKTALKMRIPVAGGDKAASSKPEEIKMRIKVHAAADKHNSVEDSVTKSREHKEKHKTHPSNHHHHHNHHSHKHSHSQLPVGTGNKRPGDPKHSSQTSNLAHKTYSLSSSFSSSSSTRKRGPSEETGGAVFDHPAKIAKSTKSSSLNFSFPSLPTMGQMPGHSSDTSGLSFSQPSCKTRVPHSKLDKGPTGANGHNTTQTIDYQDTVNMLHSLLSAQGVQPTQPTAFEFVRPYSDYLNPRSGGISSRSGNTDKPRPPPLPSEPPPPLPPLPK

With `CCOC(=O)N=S(C)(=O)Cc1ccnc(Nc2cc(-c3ccc(F)cc3OC)c(F)cn2)c1` (racemic) [Example 11, (rac)-Ethyl{[(2-{[5-fluoro-4-(4-fluoro-2-methoxyphenyl)pyridin-2-yl]amino}pyridin-4-yl)methyl](methyl)oxido-λ^6-sulfanylidene}carbamate], the IC50 on CDK9/CycT1 turned out to be 0.001 µM; in series [1] (Homo sapiens, Caco-2, 96 h), 0.11 µM; in series [2] (Homo sapiens, 96 h), 0.072 µM; in series [4] (Homo sapiens, 96 h) it was 0.1 µM; in series [5] (Homo sapiens, A2780, 96 h), 0.023 µM; in series [6] (Homo sapiens, MOLM-13, 72 h) it was 0.042 µM. Also, in series [3], the solubility at 24 h stood at 0.185 mg/mL (≈ 388 µM).

Regarding `COc1cc(F)ccc1-c1cc(Nc2cc(CS(C)(=N)=O)cc(F)n2)ncc1F` (racemic) [Example 17, (rac)-5-Fluoro-4-(4-fluoro-2-methoxyphenyl)-N-{6-fluoro-4-[(S-methylsulfonimidoyl)methyl]pyridin-2-yl}pyridin-2-amine], the IC50 against CDK9/CycT1 amounted to 0.0009 µM; in series [1] (Homo sapiens, Caco-2, 96 h), 0.057 µM; in series [2] (Homo sapiens, 96 h) it was 0.046 µM; in series [4] (Homo sapiens, 96 h), 0.033 µM; in series [5] (Homo sapiens, A2780, 96 h), 0.014 µM; in series [6] (Homo sapiens, MOLM-13, 72 h), 0.02 µM. In series [3], the solubility at 24 h was 0.003 mg/mL (≈ 7.1 µM).

For the compound `COc1cc(F)ccc1-c1cc(Nc2cc(CS(=N)(=O)CCN)ccn2)ncc1F` (racemic) [Example 9, (rac)-N-(4-{[S-(2-Aminoethyl)sulfonimidoyl]methyl}pyridin-2-yl)-5-fluoro-4-(4-fluoro-2-methoxyphenyl)pyridin-2-amine], the IC50 at CDK9/CycT1 was determined as 0.008 µM; in series [2] (Homo sapiens, 96 h), 0.41 µM; in series [5] (Homo sapiens, A2780, 96 h), 0.21 µM; in series [6] (Homo sapiens, MOLM-13, 72 h), 0.12 µM. Moreover, in series [3], the solubility at 24 h amounted to 0.66 mg/mL (≈ 1520 µM).

For `COc1cc(F)ccc1-c1cc(Nc2cc(CS(C)(=N)=O)cc(C(F)(F)F)n2)ncc1F` (single isomer, unassigned; (-)) [Example 23, (−)-5-Fluoro-4-(4-fluoro-2-methoxyphenyl)-N-{4-[(S-methylsulfonimidoyl)methyl]-6-(trifluoromethyl)pyridin-2-yl}pyridin-2-amine], the IC50 in series [1] worked out at 0.034 µM; in series [2] it was 0.03 µM; in series [4], 0.03 µM; in series [5], 0.011 µM; in series [6] it was 0.01 µM. Moreover, in series [3], the “Solubility in aqueous Citrate buffer pH4” value is on record as 45 mg/l.

Turning to `CCNC(=O)N=S(C)(=O)Cc1ccnc(Nc2cc(-c3ccc(F)cc3OC)c(F)cn2)c1` (racemic) [Example 12, (rac)-1-Ethyl-3-{[(2-{[5-fluoro-4-(4-fluoro-2-methoxyphenyl)pyridin-2-yl]amino}pyridin-4-yl)methyl](methyl)oxido-λ^6-sulfanylidene}urea], the IC50 against CDK9/CycT1 is 0.002 µM; in series [1] (Homo sapiens, Caco-2, 96 h), 0.098 µM; in series [2] (Homo sapiens, 96 h), 0.034 µM; in series [4] (Homo sapiens, 96 h), 0.1 µM; in series [5] (Homo sapiens, A2780, 96 h), 0.026 µM; in series [6] (Homo sapiens, MOLM-13, 72 h), 0.029 µM. For the same compound, in series [3], the solubility at 24 h is 0.034 mg/mL (≈ 71.5 µM).

In the case of `COc1cc(F)ccc1-c1cc(Nc2cc(CS(C)(=O)=NC#N)ccn2)ncc1F` (single isomer, unassigned) [Example 10, {[(2-{[5-Fluoro-4-(4-fluoro-2-methoxyphenyl)pyridin-2-yl]amino}pyridin-4-yl)methyl](methyl)oxido-λ^6-sulfanylidene}cyanamide], the IC50 against CDK9/CycT1 came to 0.004 µM; in series [1] (Homo sapiens, Caco-2, 96 h), 0.038 µM; in series [2] (Homo sapiens, 96 h), 0.031 µM; in series [4] (Homo sapiens, 96 h), 0.032 µM; in series [5] (Homo sapiens, A2780, 96 h), 0.01 µM; in series [6] (Homo sapiens, MOLM-13, 72 h) it was 0.012 µM. Also, the solubility at 24 h in series [3] was 0.102 mg/mL (≈ 238 µM).

Turning to `COc1cc(F)ccc1-c1cc(Nc2cc(CS(C)(=N)=O)cc(C(F)(F)F)n2)ncc1F` (single isomer, unassigned; (+)) [Example 22, (+)-5-Fluoro-4-(4-fluoro-2-methoxyphenyl)-N-{4-[(S-methylsulfonimidoyl)methyl]-6-(trifluoromethyl)pyridin-2-yl}pyridin-2-amine], the IC50 against CDK9/CycT1 was 0.002 µM; in series [1] (Homo sapiens, Caco-2, 96 h) it was 0.038 µM; in series [2] (Homo sapiens, 96 h), 0.03 µM; in series [4] (Homo sapiens, 96 h) it was 0.03 µM; in series [5] (Homo sapiens, A2780, 96 h) it was 0.012 µM; in series [6] (Homo sapiens, MOLM-13, 72 h), 0.01 µM. In addition, the solubility at 24 h in series [3] turned out to be 0.052 mg/mL (≈ 110 µM).

For `COc1cc(F)ccc1-c1cc(Nc2cc(CS(C)(=N)=O)ccn2)ncc1F` (racemic) [Example 1, (rac)-5-Fluoro-4-(4-fluoro-2-methoxyphenyl)-N-{4-[(S-methylsulfonimidoyl)methyl]pyridin-2-yl}pyridin-2-amine], the IC50 in series [1] (Homo sapiens, Caco-2, 96 h) came to 0.045 µM; in series [2] (Homo sapiens, 96 h) it was 0.095 µM; in series [4] (Homo sapiens, 96 h) it was 0.061 µM; in series [5] (Homo sapiens, A2780, 96 h), 0.026 µM; in series [6] (Homo sapiens, MOLM-13, 72 h), 0.019 µM. For the same compound, in series [3], the solubility at 24 h stood at 0.489 mg/mL (≈ 1210 µM).

In the case of `COc1cc(F)ccc1-c1cc(Nc2cc(CS(C)(=N)=O)cc(C)n2)ncc1F` (racemic) [Example 4, (rac)-5-Fluoro-4-(4-fluoro-2-methoxyphenyl)-N-{6-methyl-4-[(S-methylsulfonimidoyl)methyl]pyridin-2-yl}pyridin-2-amine], the IC50 was found to be 0.004 µM against CDK9/CycT1; 0.068 µM in series [1] (Homo sapiens, Caco-2, 96 h); 0.035 µM in series [2] (Homo sapiens, 96 h); 0.034 µM in series [4] (Homo sapiens, 96 h); 0.037 µM in series [5] (Homo sapiens, A2780, 96 h); 0.035 µM in series [6] (Homo sapiens, MOLM-13, 72 h). In series [3], the solubility at 24 h was 0.47 mg/mL (≈ 1120 µM).
